Data from patent US6841680B2, “N-type calcium channel antagonists for the treatment of pain” (AstraZeneca AB, priority 2000, dated 2005).

test system: NK-1 receptor; experiment: not given; settings: phenylbenzoquinone-induced writhing and formalin test; Garret et al; cited from earlier work

| SMILES | analgesia |
| --- | --- |
| COc1ccccc1CC(=N)N1C[C@@H]2C(=O)CCC(c3ccccc3)(c3ccccc3)[C@@H]2C1 [RP 67,580] | produced analgesia with potency comparable to that of morphine |

target: N-type calcium channel (Homo sapiens, UniProt Q00975); experiment: N-Channel FLIPR assay (IMR32 cells, 80 mM K+ evoked calcium flux); type: cell-based; settings: unit inferred
Sequence (Q00975 whole entry): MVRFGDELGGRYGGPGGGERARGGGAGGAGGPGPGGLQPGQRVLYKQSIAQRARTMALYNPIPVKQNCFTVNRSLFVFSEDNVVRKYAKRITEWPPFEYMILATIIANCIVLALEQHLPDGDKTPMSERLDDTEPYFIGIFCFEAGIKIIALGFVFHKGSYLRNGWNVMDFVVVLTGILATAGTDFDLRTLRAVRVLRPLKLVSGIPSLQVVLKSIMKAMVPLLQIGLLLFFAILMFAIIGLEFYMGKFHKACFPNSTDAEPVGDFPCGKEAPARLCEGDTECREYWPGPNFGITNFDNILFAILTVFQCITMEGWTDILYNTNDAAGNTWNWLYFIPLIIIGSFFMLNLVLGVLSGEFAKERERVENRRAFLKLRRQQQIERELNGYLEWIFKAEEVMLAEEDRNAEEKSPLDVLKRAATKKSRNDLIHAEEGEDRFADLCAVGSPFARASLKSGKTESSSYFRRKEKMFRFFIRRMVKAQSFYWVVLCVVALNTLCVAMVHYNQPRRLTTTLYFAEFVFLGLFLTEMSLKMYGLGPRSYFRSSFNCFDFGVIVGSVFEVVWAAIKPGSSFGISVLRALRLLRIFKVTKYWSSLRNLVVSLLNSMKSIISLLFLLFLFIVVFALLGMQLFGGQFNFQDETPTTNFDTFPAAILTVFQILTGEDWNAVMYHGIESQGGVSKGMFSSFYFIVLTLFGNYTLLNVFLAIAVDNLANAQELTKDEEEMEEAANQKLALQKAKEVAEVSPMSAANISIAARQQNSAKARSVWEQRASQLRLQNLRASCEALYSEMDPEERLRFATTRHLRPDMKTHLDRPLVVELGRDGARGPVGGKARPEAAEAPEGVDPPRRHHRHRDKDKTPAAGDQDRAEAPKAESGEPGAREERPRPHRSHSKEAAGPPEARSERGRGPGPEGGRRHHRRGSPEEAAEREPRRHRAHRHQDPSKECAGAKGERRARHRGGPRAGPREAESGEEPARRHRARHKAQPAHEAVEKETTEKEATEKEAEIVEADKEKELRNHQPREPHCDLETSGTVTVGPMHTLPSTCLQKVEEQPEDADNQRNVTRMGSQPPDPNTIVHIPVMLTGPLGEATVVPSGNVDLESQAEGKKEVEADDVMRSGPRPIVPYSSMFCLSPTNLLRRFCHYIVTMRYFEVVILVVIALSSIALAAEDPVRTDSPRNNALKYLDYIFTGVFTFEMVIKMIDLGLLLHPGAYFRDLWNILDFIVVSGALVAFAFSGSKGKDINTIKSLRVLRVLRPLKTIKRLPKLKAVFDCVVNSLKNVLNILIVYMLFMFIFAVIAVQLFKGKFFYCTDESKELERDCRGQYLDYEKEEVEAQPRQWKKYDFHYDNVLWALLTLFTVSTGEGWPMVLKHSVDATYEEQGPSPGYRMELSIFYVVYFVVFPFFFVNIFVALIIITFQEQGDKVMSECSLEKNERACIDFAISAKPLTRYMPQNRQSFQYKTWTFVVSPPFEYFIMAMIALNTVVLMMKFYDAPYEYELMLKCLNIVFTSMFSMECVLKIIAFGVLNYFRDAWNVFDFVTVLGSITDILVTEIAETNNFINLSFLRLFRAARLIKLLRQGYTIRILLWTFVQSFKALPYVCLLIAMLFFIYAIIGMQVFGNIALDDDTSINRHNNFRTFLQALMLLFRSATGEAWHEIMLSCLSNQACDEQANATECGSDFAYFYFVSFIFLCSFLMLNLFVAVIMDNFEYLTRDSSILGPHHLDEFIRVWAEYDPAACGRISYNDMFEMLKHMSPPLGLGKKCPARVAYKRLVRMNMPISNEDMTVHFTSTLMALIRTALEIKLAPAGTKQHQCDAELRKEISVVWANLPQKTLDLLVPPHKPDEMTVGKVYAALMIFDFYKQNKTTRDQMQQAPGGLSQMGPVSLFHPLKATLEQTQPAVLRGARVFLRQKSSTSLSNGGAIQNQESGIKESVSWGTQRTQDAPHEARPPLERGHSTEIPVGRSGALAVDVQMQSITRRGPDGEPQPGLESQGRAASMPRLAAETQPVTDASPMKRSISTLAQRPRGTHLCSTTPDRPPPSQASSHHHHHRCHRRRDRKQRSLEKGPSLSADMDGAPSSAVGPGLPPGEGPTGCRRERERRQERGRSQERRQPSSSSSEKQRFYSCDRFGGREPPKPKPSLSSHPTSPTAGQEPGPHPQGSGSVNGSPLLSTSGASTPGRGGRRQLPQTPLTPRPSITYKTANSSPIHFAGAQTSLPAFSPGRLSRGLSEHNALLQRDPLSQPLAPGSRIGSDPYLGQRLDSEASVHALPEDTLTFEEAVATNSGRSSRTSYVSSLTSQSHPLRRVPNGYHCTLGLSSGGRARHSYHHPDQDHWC
Sequence (P54289 25-1103 partner): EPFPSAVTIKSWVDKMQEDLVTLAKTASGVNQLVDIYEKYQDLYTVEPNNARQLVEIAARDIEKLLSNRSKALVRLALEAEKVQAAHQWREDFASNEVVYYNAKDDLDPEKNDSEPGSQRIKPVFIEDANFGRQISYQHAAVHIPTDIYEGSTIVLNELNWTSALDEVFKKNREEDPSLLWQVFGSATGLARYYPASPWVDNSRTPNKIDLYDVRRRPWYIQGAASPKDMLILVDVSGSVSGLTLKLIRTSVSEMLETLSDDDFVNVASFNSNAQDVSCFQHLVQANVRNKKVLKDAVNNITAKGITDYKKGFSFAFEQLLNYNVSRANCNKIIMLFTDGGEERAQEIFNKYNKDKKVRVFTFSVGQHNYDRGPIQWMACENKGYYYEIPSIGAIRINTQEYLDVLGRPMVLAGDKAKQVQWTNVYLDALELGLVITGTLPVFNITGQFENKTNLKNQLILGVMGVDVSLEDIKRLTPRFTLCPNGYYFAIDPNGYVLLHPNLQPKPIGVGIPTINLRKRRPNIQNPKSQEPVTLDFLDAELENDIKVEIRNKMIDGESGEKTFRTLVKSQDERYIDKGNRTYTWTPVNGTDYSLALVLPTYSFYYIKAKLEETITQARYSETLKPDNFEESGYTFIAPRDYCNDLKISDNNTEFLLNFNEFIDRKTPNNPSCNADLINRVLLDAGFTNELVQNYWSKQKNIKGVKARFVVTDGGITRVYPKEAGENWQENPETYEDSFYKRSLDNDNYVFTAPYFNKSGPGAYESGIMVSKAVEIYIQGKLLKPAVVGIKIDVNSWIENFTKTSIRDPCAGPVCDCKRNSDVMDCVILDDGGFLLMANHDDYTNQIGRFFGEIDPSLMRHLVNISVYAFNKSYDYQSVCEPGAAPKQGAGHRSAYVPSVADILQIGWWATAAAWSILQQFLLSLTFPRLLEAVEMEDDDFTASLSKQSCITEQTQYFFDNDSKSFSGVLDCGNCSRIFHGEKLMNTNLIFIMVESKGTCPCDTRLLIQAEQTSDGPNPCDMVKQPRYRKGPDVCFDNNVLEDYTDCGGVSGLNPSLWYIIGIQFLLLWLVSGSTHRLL
Sequence (P54284 whole entry partner): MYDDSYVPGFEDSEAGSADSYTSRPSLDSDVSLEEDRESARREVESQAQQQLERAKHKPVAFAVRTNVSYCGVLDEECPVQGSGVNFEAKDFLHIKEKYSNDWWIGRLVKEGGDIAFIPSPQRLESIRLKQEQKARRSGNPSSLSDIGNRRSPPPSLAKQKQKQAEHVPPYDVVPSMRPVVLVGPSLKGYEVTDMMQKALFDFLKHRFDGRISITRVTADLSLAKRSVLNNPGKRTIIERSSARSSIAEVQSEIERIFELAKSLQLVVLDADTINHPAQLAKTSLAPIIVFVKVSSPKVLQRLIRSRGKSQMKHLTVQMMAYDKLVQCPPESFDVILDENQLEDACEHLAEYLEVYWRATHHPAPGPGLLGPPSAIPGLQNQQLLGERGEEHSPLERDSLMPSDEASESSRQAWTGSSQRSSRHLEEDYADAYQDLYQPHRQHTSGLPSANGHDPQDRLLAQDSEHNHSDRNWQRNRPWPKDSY

| SMILES | IC50 [µM] |
| --- | --- |
| CNc1cc(-c2cccc(F)c2)nc2ccc(-c3ccccc3C=O)cc12 [Example 15, 2-[2-(3-fluorophenyl)-4-(methylamino)-6-quinolinyl]-benzaldehyde] | 5.38 |
| CNc1cc(-c2cccc(F)c2)nc2ccc(-c3ccccc3Cl)cc12 [Example 12, 2-(3-fluorophenyl)-6-(2-chlorophenyl)-4-methylaminoquinoline] | 10.5 |
| CNc1cc(-c2cccc(F)c2)nc2ccc(-c3ccccc3)cc12 [Example 13, 2-(3-fluorophenyl)-6-phenyl-4-methylaminoquinoline] | 8.6 |
| CNc1cc(-c2cccc(F)c2)nc2ccc(-c3ccccc3OC)cc12 [Example 16, 2-(3-fluorophenyl)-6-(2-methoxyphenyl)-4-methylaminoquinoline] | 5.78 |
| CNc1cc(-c2cccc(F)c2)nc2ccc(-c3ccccc3C)cc12 [Example 14, 2-(3-fluorophenyl)-6-(2-methylphenyl)-4-methylaminoquinoline] | 8.82 |
